# Laboratory results published in patent publication US8012414B2, “Sterilization of drugs using supercritical carbon dioxide sterilant” (Novasterilis, priority 2007, dated 2011).
# Test: State of micro-crystalline/powder drug after supercritical CO2 sterilization with peracetic acid additive
# Format: physicochemical
# Details: 1500 psi, 35° C., 180 minutes, Peracetic Acid 16 mL
# Protocol: For these products, the input or flow of CO2 through valve 24 into the reactor pressure vessel 22 is regulated to 0.01 to 5 psi/second. Regulating the rate of pressurization is also intended to control mass flow (1000 mg/second) of CO2 into the reactor pressure vessel 22. In the initial fill, the valve 24 is opened and allowed to flow at the regulated rate using the ambient pressure of the CO2 supply from the gas cylinder 12. The CO2 supply pressure can range from 75 psi to approximately 900 psi or greater. Once the pressure in reactor pressure vessel 22 reaches equilibrium with the CO2 supply source pressure, the pumping of the CO2 using the carbon dioxide booster 16 begins. […] Once the reactor pressure vessel 22 reaches its operating pressure of 1500 psi, the process is allowed to continue through its normal path. Upon completion of the desired time period at the operating temperature and pressure, depressurization of the reactor pressure vessel 22 then occurs. […] Regulating the rate of depressurization is also intended to control of mass flow of CO2 out of the reactor pressure vessel 22. The rate of depressurization is controlled at this rate until the ambient pressure in the reactor pressure vessel 22 is zero or at equilibrium with the atmospheric pressure. Ambient conditions are generally zero psi and 25 degrees C. […]
substance,measurement,setting,value
Methyl-Prednisone,State of the Corticosteroid drug after sterilization (look and feel of powder),"CO2 pressurization 5 psi/second, depressurization 50 psi/second",unchanged
same,State of the Corticosteroid drug after sterilization (look and feel of powder),"CO2 pressurization 75 psi/second (unrestricted), depressurization 100 psi/second",changed
